Where two headings read alike, the source gives them in different places.
How the values were obtained:
cat-CHD1L ATPase = target: T1, cat-CHD1L ATPase (Homo sapiens, UniProt Q86WJ1); test: CHD1L ATPase assay with recombinant catalytic domain (cat-CHD1L); assay type: biochemical; settings: for inhibition at 20 µM: confirmed HTS hits, HTS at 20 μM, read-out: inhibition against cat-CHD1L ATPase
T1 construct: inferred from Ni-NTA / imidazole purification; made in house; host or cells: E. coli Rosetta 2 (DE3) pLysS; constructs were a gift from Helena Berglund, Karolinska Institute
T1 sequence (Q86WJ1 16-611 limits assumed): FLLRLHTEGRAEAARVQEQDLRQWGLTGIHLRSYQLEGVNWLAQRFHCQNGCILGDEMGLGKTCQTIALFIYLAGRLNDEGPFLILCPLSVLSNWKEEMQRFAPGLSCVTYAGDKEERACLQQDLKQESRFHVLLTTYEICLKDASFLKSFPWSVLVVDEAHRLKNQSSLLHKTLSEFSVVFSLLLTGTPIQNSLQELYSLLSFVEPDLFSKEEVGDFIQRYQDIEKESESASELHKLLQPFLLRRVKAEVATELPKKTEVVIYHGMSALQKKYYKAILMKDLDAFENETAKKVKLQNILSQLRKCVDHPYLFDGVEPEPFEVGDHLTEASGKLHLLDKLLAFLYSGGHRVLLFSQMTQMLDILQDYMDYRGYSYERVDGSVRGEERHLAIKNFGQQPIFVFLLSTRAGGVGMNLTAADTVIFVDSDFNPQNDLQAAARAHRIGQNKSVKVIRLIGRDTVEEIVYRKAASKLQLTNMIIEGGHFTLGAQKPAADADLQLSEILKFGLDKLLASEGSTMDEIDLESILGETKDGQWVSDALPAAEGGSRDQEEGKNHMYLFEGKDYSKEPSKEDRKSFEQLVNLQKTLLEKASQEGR
Experimental: All reactions were carried out using low volume non-binding surface 384-well plates (Corning Inc., Corning N.Y.). cat-CHD1L or fl-CHD1L (100 nM) and 200 nM c-Myc DNA or mononucelosome (Active Motif, Carlsbad, Calif.) were added to a buffer containing 50 mM Tris pH 7.5, 50 mM NaCl, 1 mM DTT, 5% glycerol, and the reaction was initiated by the addition of 10 μM ATP (New England Biolabs, Ipswich, Mass.) to a total volume of 10 μL and incubated at 37° C. for 1 h. ATPase activity was assayed by adding 500 nM of Phosphate Sensor (Life Technologies, Carlsbad, Calif.), containing labeled phosphate-binding protein, specifically labeled with the fluorophore MDCC, and measuring excitation (430 nm) and emission (450 nm) immediately on an EnVision® plate reader (PerkinElmer, Hopkinton, Mass.). An inorganic phosphate standard curve was used to convert the fluorescence to [Pi], and enzyme kinetics were determined using Prism8 (GraphPad Software, San Diego, Calif.).
Assay composition was the same as described above using cat-CHD1L, except that the reaction mixture volume was modified to accommodate addition of drug or DMSO. Using a Janus® liquid handler (PerkinElmer, Hopkinton, Mass.), a selected amount of compounds dissolved in 100% DMSO were mixed with 50 mM Tris pH 7.5, 50 mM NaCl, 1 mM DTT, 5% glycerol buffer to 200 μM in 10% DMSO. […] The negative control used was 1% DMSO and 10 mM EDTA was used as a positive control. Reactions were initiated with the addition of 10 μM ATP and incubated at 37° C. for 1 h. ATPase activity was measured by fluorescence by adding 500 nM Phosphate Sensor. cat-CHD1L was screened against a 20,000-compound diversity set from Life Chemicals (Woodbridge, Conn.) and a Kinase Inhibitor library from Selleck Chemicals (Houston, Tex.).
CHD1L Enzyme ATPase Assay. […] All reactions were carried out using low volume nonbinding surface 384-well plates (Corning Inc., Corning, N.Y.). […] The reaction was initiated by the addition of 10 μmol/L ATP (New England Biolabs, Ipswich, Mass.) to a total volume of 10 μL and incubated at 37° C. for 1 hour. ATPase activity was measured by adding 500 nmol/L of Phosphate Sensor (ThermoFisher, Waltham, Mass.) measuring excitation (430 nm) and emission (450 nm) immediately on an Envision plate reader (PerkinElmer, Waltham, Mass.). Background signal was determined by using all assay components excluding the enzyme.

HCT116 tumor organoids = test: Tumor organoid cytotoxicity (CellTiter-Glo 3D); assay type: cell-based, human; settings: Homo sapiens
Experimental: Cell based cytotoxicity dose response and combination studies. […] Plates were then incubated for 3 days before treatment.
Cell Line Tumor Organoid Culture.
Tumor Organoid Cytotoxicity.

SW620 tumor organoids = test: Tumor organoid cytotoxicity (CellTiter-Glo 3D)
[1] = units given with the values (nM, μM), read-out: activity in dose response studies against cat-CHD1L ATPase (IC50, FIG. 1A)
[2] = HCT-116, 72 h, Table 6, read-out: 3 D Cytotoxicity 72 hr IC50 (μM) HCT116
[3] = HCT-116, single agent, Table 4A, read-out: Tumor Organoid Cytotoxicity IC50 (μM) HCT116
[4] = Homo sapiens, SW-620, 72 h, read-out: 3 D Cytotoxicity 72 hr IC50 (μM) SW620
[5] = Homo sapiens, SW-620, read-out: Tumor Organoid Cytotoxicity IC50 (μM) SW620
[6] = Table 6, read-out: cat-CHD1L inhibition IC50

Row | Structure (SMILES) | IC50 (cat-CHD1L ATPase; [6]) | IC50 (HCT116 tumor organoids; [2]) | IC50 (SW620 tumor organoids; [4]) | IC50 (SW620 tumor organoids; [5]) | other results
1 | O=S(=O)(NCCN1CCOCC1)c1ccc(C2CCCCC2)cc1 [Compound 1] | – | – | – | – | inhibition at 20 µM (cat-CHD1L ATPase): > 50%; IC50 (cat-CHD1L ATPase; [1]): 900 to 5000 nM
2 | Cc1ccc(-c2ccc(S(=O)(=O)NCCN3CCOCC3)cc2)cc1C [Compound 2] | – | – | – | – | inhibition at 20 µM (cat-CHD1L ATPase): > 50%; IC50 (cat-CHD1L ATPase; [1]): 900 to 5000 nM
3 | COc1cc(C)c(C(C)C)cc1S(=O)(=O)NCCN1CCOCC1 [Compound 3] | – | – | – | – | inhibition at 20 µM (cat-CHD1L ATPase): > 50%; IC50 (cat-CHD1L ATPase; [1]): 900 to 5000 nM
4 | Cc1cc(Nc2ccc(NC(=O)CCc3c[nH]c4ccccc34)cc2)nc(N2CCCC2)n1 [Compound 6.6, 3-(1H-indol-3-yl)-N-(4-((6-methyl-2-(pyrrolidin-1-yl)pyrimidin-4-yl)amino)phenyl) propanamide] | – | > 40 µM | > 40 µM | > 40 µM | IC50 (HCT116 tumor organoids; [3]): > 30 µM
5 | Cc1cc(Nc2ccc(NC(=O)CCCc3c[nH]c4ccccc34)cc2)nc(N2CCCC2)n1 [Compound 6.7, 4-(1H-indol-3-yl)-N-(4-((6-methyl-2-(pyrrolidin-1-yl)pyrimidin-4-yl)amino)phenyl)butanamide] | – | 17.6 µM | 13 µM | 12.7 µM | IC50 (HCT116 tumor organoids; [3]): 17.6 µM
6 | Cc1cc(Nc2ccc(NC(=O)/C=C/c3c[nH]c4ccccc34)cc2)nc(N2CCCC2)n1 [Compound 6.8, (E)-3-(1H-indol-3-yl)-N-(4-((6-methyl-2-(pyrrolidin-1-yl)pyrimidin-4-yl)amino)phenyl)-acrylamide] | – | 6.8 µM | 4.3 µM | 3.6 µM | IC50 (HCT116 tumor organoids; [3]): 6.85 µM
7 | Cc1cc(Nc2ccc(NC(=O)c3cn(C)c4ccccc34)cc2)nc(N2CCCC2)n1 [Compound 6.19, 1-methyl-N-(4-((6-methyl-2-(pyrrolidin-1-yl)pyrimidin-4-yl)amino)phenyl)-1H-indole-3-carboxamide] | – | > 40 µM | 7.7 µM | 7.7 µM | IC50 (HCT116 tumor organoids; [3]): > 30 µM
8 | Cc1cc(Nc2ccc(NC(=O)Cc3c[nH]c4ncccc34)cc2)nc(N2CCCC2)n1 [Compound 6.20, N-(4-((6-methyl-2-(pyrrolidin-1-yl)pyrimidin-4-yl)amino)phenyl)-2-(1H-pyrrolo[2,3-b]pyridin-3-yl)acetamide] | – | – | 2.2 µM | 2.1 µM | –
9 | COc1ccc2[nH]cc(CC(=O)Nc3ccc(Nc4cc(C)nc(N5CCCC5)n4)cc3)c2c1 [Compound 6.22, 2-(5-methoxy-1H-indol-3-yl)-N-(4-((6-methyl-2-(pyrrolidin-1-yl)pyrimidin-4-yl)amino)phenyl) acetamide] | – | – | – | – | IC50 (SW620 tumor organoids; read-out: 3 D Cytotoxicity 72 hr IC50 (μM) SW620, Table 6): 11.3 µM; IC50 (SW620 tumor organoids; read-out: Tumor Organoid Cytotoxicity IC50 (μM) SW620, single agent, Table 4A, updated experimental, rounded to one decimal): 12.6 µM
10 | Cc1cc(Nc2ccc(NC(=O)Cc3c[nH]c4ccc(Br)cc34)cc2)nc(N2CCCC2)n1 [Compound 6.23, 2-(5-bromo-1H-indol-3-yl)-N-(4-((6-methyl-2-(pyrrolidin-1-yl)pyrimidin-4-yl)amino)phenyl) acetamide] | – | – | – | 5.7 µM | –
11 | Cc1cc(Nc2ccc(NC(=O)Cn3ccc4ccccc43)cc2)nc(N2CCCC2)n1 [Compound 6.24, 2-(1H-indol-1-yl)-N-(4-((6-methyl-2-(pyrrolidin-1-yl)pyrimidin-4-yl)amino)phenyl)acetamide] | – | – | 3 µM | 2.7 µM | –
12 | Cc1cc(Nc2ccc(NC(=O)Cc3c[nH]c4ccc(O)cc34)cc2)nc(N2CCCC2)n1 [Compound 6.25, 2-(5-hydroxy-1H-indol-3-yl)-N-(4-((6-methyl-2-(pyrrolidin-1-yl)pyrimidin-4-yl)amino)phenyl) acetamide] | – | – | 17.6 µM | 19.7 µM | –
13 | Cc1cc(Nc2ccc(NC(=O)Cn3cc(CC4CC4)c4ccccc43)cc2)nc(N2CCCC2)n1 [Compound 6.26, 2-(3-(cyclopropylmethyl)-1H-indol-1-yl)-N-(4-((6-methyl-2-(pyrrolidin-1-yl)pyrimidin-4-yl)amino)phenyl)acetamide] | – | – | 4.7 µM | 5.5 µM | –
14 | CCc1ccc2[nH]cc(CC(=O)Nc3ccc(Nc4cc(C)nc(N5CCCC5)n4)cc3)c2c1 [Compound 6.27, 2-(5-ethyl-1H-indol-3-yl)-N-(4-((6-methyl-2-(pyrrolidin-1-yl)pyrimidin-4-yl)amino)phenyl) acetamide] | – | – | 3 µM | 2.1 µM | –
15 | Cc1cc(Nc2ccc(NC(=O)Cc3cn(S(=O)(=O)c4ccc(C(F)(F)F)cc4)c4ccccc34)cc2)nc(N2CCCC2)n1 [Compound 6.29, N-(4-((6-methyl-2-(pyrrolidin-1-yl)pyrimidin-4-yl)amino)phenyl)-2-(1-((4-(trifluoromethyl)phenyl)sulfonyl)-1H-indol-3-yl)acetamide] | – | – | 5.4 µM | 5.1 µM | –
16 | Cc1cc(Nc2ccc(NC(=O)CC3C(=O)Nc4ccccc43)cc2)nc(N2CCCC2)n1 (stereo not drawn) [Compound 6.30, N-(4-((6-methyl-2-(pyrrolidin-1-yl)pyrimidin-4-yl)amino)phenyl)-2-(2-oxoindolin-3-yl) acetamide] | – | – | 6.1 µM | 6 µM | –
17 | COC(=O)C1CCCN1c1nc(C)cc(Nc2ccc(NC(=O)Cc3cc(Br)cs3)cc2)n1 (stereo not drawn) [Compound 6.35] | 1800 nM | – | 8.6 µM | – | CHD1L enzyme inhibition, in words (cat-CHD1L ATPase; recombinant cat-CHD1L): good enzyme inhibition; IC50 (SW620 tumor organoids; Homo sapiens, SW-620, read-out: IC50 of cytotoxicity in SW620 cells): < 10 µM
18 | Cc1cc(Nc2ccc(NC(=O)Cc3cc(Br)cs3)cc2)nc(N2CCCC2C(=O)O)n1 (stereo not drawn) [Compound 6.36] | > 20000 nM | – | > 20 µM | – | –
19 | Cc1cc(Nc2ccc(NC(=O)Cc3cc(Br)cs3)cc2)nc(N2CCNCC2)n1 [Compound 6.40] | 11400 nM | 4.8 µM | 10.5 µM | – | –
20 | Cc1cc(Nc2ccc(NC(=O)Cc3ccccn3)cc2)nc(N2CCCC2)n1 [Compound 6.42] | 17700 nM | 20.9 µM | – | – | –
21 | Cc1cc(NCc2ccc(NC(=O)Cc3cc(Br)cs3)cc2)nc(N2CCCCC2)n1 [Compound 6.46] | 700 nM | 8.3 µM | 12.5 µM | – | –

Second part, led by results:

Row | IC50 (cat-CHD1L ATPase; [6]) | Structure (SMILES) | IC50 (HCT116 tumor organoids; [2]) | IC50 (SW620 tumor organoids; [4]) | IC50 (SW620 tumor organoids; [5]) | other results
22 | 3000 nM | COC(=O)C1CCCN1c1nc(C)cc(Nc2ccc(NC(=O)Cc3cccs3)cc2)n1 (stereo not drawn) [Compound 6.34] | – | > 20 µM | – | –
23 | 10300 nM | Cc1cc(Nc2ccc(NC(=O)Cc3cccnc3)cc2)nc(N2CCCC2)n1 [Compound 6.43] | 19.1 µM | – | – | –
24 | 1200 nM | Cc1cc(NCc2ccc(NC(=O)Cc3cc(Br)cs3)cc2)nc(N2CCN(C)CC2)n1 [Compound 6.44] | 14 µM | 22.7 µM | – | –
25 | 1400 nM | Cc1cc(N2CCN(C)CC2)nc(NCc2ccc(NC(=O)Cc3cc(Br)cs3)cc2)n1 [Compound 6.45] | 10.6 µM | 27.2 µM | – | –
26 | 800 nM | Cc1cc(N2CCCCC2)nc(NCc2ccc(NC(=O)Cc3cc(Br)cs3)cc2)n1 [Compound 6.47] | 9.3 µM | 13.8 µM | – | –
27 | 4500 nM | Cc1cc(Nc2ccc(NC(=O)Cc3cc(Br)cs3)cc2)nc(N2CCN(C)CC2)n1 [Compound 6.48] | 7.6 µM | 21.8 µM | – | –

— US20230103444A1 (The Regents of the University of Colorado, a Body Corporate, priority 2020, published 2023)
